Experimental data published in patent US11879021B2, “Cyclic peptides and uses thereof” (UNIVERSITÉ DE MONTRÉAL, priority 2016, dated 2024).

How the values were obtained:
[1] = target: T1, CD36 (Rattus norvegicus, UniProt Q07969); assay: Competition binding of photoactivatable [125I]-Tyr-Bpa-Ala-Hexarelin to CD36 in rat cardiac membranes; settings: competition with [125I]-Tyr-Bpa-Ala-Hexarelin, rat heart membranes; for IC50: read-out: IC50 (μM), binding affinity for CD36
T1 construct: from tissue; host or cells: Heart (cardiac membranes) of Sprague Dawley rats from Charles River
T1 sequence (Q07969 whole entry): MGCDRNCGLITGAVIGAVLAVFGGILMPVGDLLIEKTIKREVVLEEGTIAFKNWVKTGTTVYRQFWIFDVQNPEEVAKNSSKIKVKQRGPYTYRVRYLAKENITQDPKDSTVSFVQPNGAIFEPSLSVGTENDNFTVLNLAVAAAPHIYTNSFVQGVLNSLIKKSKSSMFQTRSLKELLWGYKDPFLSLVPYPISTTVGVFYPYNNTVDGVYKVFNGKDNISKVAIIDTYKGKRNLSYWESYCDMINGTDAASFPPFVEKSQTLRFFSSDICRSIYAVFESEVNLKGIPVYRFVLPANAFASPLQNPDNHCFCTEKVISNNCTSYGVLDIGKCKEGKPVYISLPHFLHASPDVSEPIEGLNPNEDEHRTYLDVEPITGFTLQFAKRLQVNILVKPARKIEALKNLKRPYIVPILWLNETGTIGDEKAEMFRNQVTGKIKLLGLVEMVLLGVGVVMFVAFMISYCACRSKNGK
Method: Hearts from Sprague Dawley rats (300-325 g) from Charles River were cut into small pieces and homogenized with a Polytron® at low speed, 3×15 sec in buffer A (10 mM NaHCO3, 5 mM NaN3, 10 μM Pefabloc®, 0.1 μM Aprotinin, 1 μM Pepstatin A, 1 μM Leupeptin, pH 7.0) at a concentration of […] of tissue. The homogenate was first centrifuged at 8,700×g for 20 min in a Sorvall® centrifuge and the supernatant was collected on ice. The pellet was resuspended and re-homogenized with a Glass-Teflon® Potter by 5 strokes. This homogenate was recentrifuged at 8,700×g for 10 min and the resulting supernatant was combined with the first collected supernatant. The combined supernatant was centrifuged at 35,000×g for 20 min. The pellet fraction obtained was resuspended in Buffer B (20 mM Tris-maleate, 0.6M KCl, pH 6.8) in a volume corresponding to 20 mL/g of fresh tissue using a glass homogenizer with a Teflon pestle. The resulting suspension was centrifuged again at 35,000×g for 60 min. and the pellet fraction obtained was resuspended in Buffer C (10 mM Tris/HCl buffer pH 7.4) and thoroughly homogenized in a glass with a Teflon® pestle (20 ml/g of fresh tissue). This suspension was submitted to another centrifugation at 35,000×g for 60 min. The collected pellet was resuspended in 50 mM Tris/HCl buffer pH 7.4) containing 2 mM EGTA in a final volume corresponding to 1-2 mL/g of fresh tissue. The membrane preparation obtained was frozen at −80° C. Protein concentration was determined using the bicinchoninic acid (BCA) method, employing BSA as standard.
The reaction was started by adding 3 nmol of H2O2 for 5 min at room temperature. This step was repeated twice with a period of 5 min of incubation for each addition. The reaction was stopped by diluting the mixture with 1 mL of 0.1% TFA. The radioiodinated peptide was purified by HPLC on a reverse-phase Vydac® C18 column with a 60-min linear gradient from 20% to 50% of acetonitrile in 0.1% TFA. The eluted radiolabelled tracer was collected, aliquoted (50×10^6 cpm/fraction) and stored at −80° C.
Binding studies with MPE-298 were done with increasing concentrations from 0.01 to 5 μM of competition ligands. Nonspecific binding was defined as binding not displaced by 50 μM corresponding peptide. All peptide containing solutions were diluted in Buffer B. Buffer A and B were degassed under vacuum, and used in capped tubes in order to minimize lipid peroxidation. Before the incubation period, all tubes were put under a low flow of nitrogen. All material was kept on ice and the binding assay was performed in darkness. After an incubation period of 60 min at 22° C. (vortexing every 15 min), membranes were submitted to irradiation with UV lamps (365 nm) for 15 min at 4° C. After centrifugation at 12,000×g for 15 minutes, the pellets were resuspended in 40 μl of sample buffer (62 mM Tris-HCl, pH 6.8, 2% SDS, 10% glycerol, 15% 2-mercaptoethanol, and 0.05% bromophenol blue), and boiled for 5 min prior to being subjected to electrophoresis. Proteins (50 μg/40 μl) were separated on a 7.5% SDS-PAGE Bio-Rad® Mini-Protean electrophoresis system (150 V for 1 h). The gels resulting from SDS/PAGE were fixed, colored in Coomassie Brilliant Blue R-250, dried, exposed to a storage phosphor intensifying screen (Amersham Biosciences), and analysed using a Typhoon® PhosphorImager (GE Healthcare Life Sciences®). […] The curves were analysed by using software package (Graphpad® prism version 7.0).

[2] = system: R-FSL-1 (TLR2 agonist)-induced NO production in RAW macrophage cell line; assay: Nitric oxide (NO) production induced by TLR2 agonist R-FSL-1 in RAW macrophage cell line; assay type: cell-based, murine; settings: RAW macrophages; for suppression of NO production compared with positive control MPE-001 at the same concentration / suppression of R-FSL-1-mediated NO production at 10^−7 M: 10^−7 M, FIG. 4F; for suppression of R-FSL-1-mediated NO production at 10^−7 M: further analyses; for R-FSL-1-mediated NO production, % of control: control = R-FSL-1 only, noticeable reduction without reaching significance (P<0.01)
Method: The murine RAW1 macrophage cell line was obtained from American Type Cell Collection (ATCC #TIB-71), seeded at 1.5×10^5 cells/well in Dulbecco's Modified Eagle's medium (DMEM) containing 100 U/mL of penicillin (Pen) and 100 μg/mL of streptomycin (Strep) on a 48-well plate (Costar® #3548), and incubated at 37° C. with 5% CO2. After 2 h, the cell culture medium of adhered cells was removed and replaced by DMEM-Pen/Strep medium containing 0.2% of bovine serum albumin (BSA), and supplemented with the cyclic peptides at a concentration of 10^−6 or 10^−7 M. MPE-001 (DBG178, His-D-Trp-Ala-AzaTyr-D-Phe-Lys-NH2) and [azaLys^6]-GHRP-6 (His-D-Trp-Ala-Trp-D-Phe-azaLys-NH2, negative control) at 10^−6 M were used as positive and negative controls, respectively. After 1 h pre-incubation, the cells were stimulated overnight using the TLR2 ligand fibroblast-stimulating lipopeptide (R-FSL-1) (Invivogen® #L7022) at a concentration of 300 ng/mL. Supernatants were then collected for nitrite production analysis by fluorescence using 2,3-diaminonaphthalene (DAN). Briefly, 25 μL of sample was incubated with 0.5 μg of DAN in a 100 μL final volume of phosphate buffer (50 mM, pH 7.5) at room temperature in the dark. After 15 min, the reaction was stopped with 20 μL of NaOH (2.8N) and the plate was read using a fluorescence plate reader (TECAN® Safire, λexc 365 nm and λem 430 nm).

[3] = system: R-FSL-1 (TLR2 agonist)-induced TNF-α and CCL-2 release in RAW macrophages; assay: R-FSL-1-induced TNF-α and CCL-2 release in RAW macrophages; assay type: cell-based, murine; settings: 10^−7 M
Method: The murine RAW1 macrophage cell line was obtained from American Type Cell Collection (ATCC #TIB-71). RAW cells were seeded at 150,000 cells per well in a 48-well plate (Costar® #3548) and weaned overnight in medium (DMEM supplemented 1% penicillin/streptomycin) at 37° C. with 5% CO2. The next day, the medium was changed to DMEM-1% penicillin/streptomycin supplemented with 0.2% BSA. The cells were first pretreated with 300 μL of azapeptides DBG178 (MPE-133, reference standard), 25 (MPE-210), 26 (MPE-266), 28 (MPE-268), 32 (MPE-267), 33 (MPE-298), 38 (MPE-308), 35 (MPE-300), 39 (MPE-310) and azaLys6-GHRP-6 (as negative control) at 10^-7M for 30 min. Then, […] of the TLR2 agonist, R-FSL-1 (300 ng/ml final concentration, R-FSL-1, Invivogen® #L7022) was added for 4 h period of incubation at 37° C. with 5% CO2. At the end of the incubation period, media were collected and stored at −80° C. for TNF-α and CCL-2 assays using ELISA kits (EbioScience® #88-7391 and #88-7324). Results were analyzed by analysis of variance (ANOVA) with post hoc comparisons using Dunnett's test with a statistical software package (Graph Pad Prism® version 7.0). P<0.05 was considered statistically significant.

[4] = system: apoE−/− mice; assay: Murine atherosclerosis model (apoE−/− mice on atherogenic diet), aortic lesions; assay type: in vivo; settings: 300 nmol/kg daily s.c. for 8 weeks
Method: Experiments were performed in male apoE−/− mice fed an atherogenic diet (D12108, cholate-free AIN-76A semi-purified diet, Research Diets Inc., New Brunswick, NJ) from 4 weeks of age. MPE-298 (300 nmol/kg), MPE-267 (300 nmol/kg) or vehicle (0.9% NaCl), were administered by daily by subcutaneous (s.c.) injections for 8 weeks, from 12 weeks of age, as shown schematically in FIG. 8A.

[5] = system: R-FSL-1 (TLR2 agonist)-induced TNF-α and CCL-2 release in RAW macrophages; assay: R-FSL-1-induced TNF-α and CCL-2 release in RAW macrophages; assay type: cell-based, murine; settings: 10^−7 M; remark: listed apart in the source

Row | Structure (SMILES) | IC50 [1] [µM] | suppression of R-FSL-1-mediated NO production ([2]; at the concentration tested (10^−6 or 10^−7 M), FIGS. 4A to 4F) | effect on R-FSL-1-induced CCL-2 release [3] | effect on R-FSL-1-induced TNF-α release [3] | reduction of aortic lesions relative to 0.9% NaCl (vehicle) [4] [%] | binding to CD36 (in words) [1] | suppression of NO production compared with positive control MPE-001 at the same concentration [2] | suppression of R-FSL-1-mediated NO production at 10^−7 M [2] | R-FSL-1-mediated NO production, % of control [2] | inhibitory effect on R-FSL-1-induced CCL-2 release compared with reference standard DBG178 (MPE-001) [5]
1 | C=CCN1CC#CCN(NC(=O)[C@H](C)N)C(=O)N[C@@H](C)C(=O)N[C@@H](Cc2c[nH]c3ccccc23)C(=O)N[C@H](Cc2ccccc2)C(=O)N[C@H](C(N)=O)CCCC1 [MPE-267] | 0.24 | significant suppression | significant inhibitory effect | significant inhibitory effect | 28 |  |  |  |  | 
2 | C=CCN1CC#CCN(N)C(=O)N[C@H](Cc2c[nH]c3ccccc23)C(=O)N[C@@H](C)C(=O)N[C@@H](Cc2c[nH]c3ccccc23)C(=O)N[C@H](Cc2ccccc2)C(=O)N[C@H](C(N)=O)CCCC1 [MPE-268] |  |  | no significant effect | no significant effect |  | no significant binding affinity | more important | significant suppression | about 80 % of control | 
3 | C=CCN1CC#CCN(NC(=O)[C@H](C)NC(C)=O)C(=O)N[C@H](Cc2c[nH]c3ccccc23)C(=O)N[C@@H](C)C(=O)N[C@@H](Cc2c[nH]c3ccccc23)C(=O)N[C@H](Cc2ccccc2)C(=O)N[C@H](C(N)=O)CCCC1 [MPE-308] | 0.67 |  | significant inhibitory effect | significant inhibitory effect |  |  | more important | significant suppression | about 80 % of control | 
4 | C=CCN1CC#CCN(NC(C)=O)C(=O)N[C@H](Cc2c[nH]c3ccccc23)C(=O)N[C@@H](C)C(=O)N[C@@H](Cc2c[nH]c3ccccc23)C(=O)N[C@H](Cc2ccccc2)C(=O)N[C@H](C(N)=O)CCCC1 [MPE-310] | 0.89 |  | significant inhibitory effect | significant inhibitory effect |  |  | more important | significant suppression | about 80 % of control | significantly higher
